“Also recorded” adds a separate entry of the source. Like-named read-outs stand apart in the source and are kept apart here. Marks after values point to notes of the source that are not given here.
Tests used:
[1] = tested on: wild-type (AB) zebrafish (Danio rerio); assay: animal or person; assay type: in vivo; settings: for MEC: locomotor behaviors
Method: (§1) Larval zebrafish were produced in the University of Toledo zebrafish core facility and housed in an incubator maintained at 28 °C on a 14:10 h cycle. Fish were acclimated to the testing room conditions the evening prior to testing. All testing took place during the 14 h light cycle after the lights had been on for at least 2 h.
The movement of larval zebrafish was monitored with the Noldus behavior recording system (Noldus Information Technology, Leesburg VA) and quantified using EthoVision® XT 15 software (Noldus Information Technology, Leesburg VA). Five-dpf zebrafish larvae were exposed to a range of nonlethal concentrations of compounds in a 24-well plate with appropriate controls. The plate was immediately placed in the incubator for a 30-min exposure period. After 30 min, the plate was transferred to the Noldus system and swimming behavior was recorded in 100% light for 30 min to measure spontaneous swimming behavior. The light was switched off for 10 min (dark period) and then switched on for 10 min (light period), which was then repeated for two additional cycles. In total, the larvae were exposed to three cycles of alternating 10 min dark and light periods (100% darkness-to-100% light). Each drug challenge was conducted on three separate plates with n = 6 larvae/dose/plate.
Absolute turn angle (TA) and angular velocity provided measures of the extent of turning behavior, while the intra-individual variance of turn angle quantified how consistently (low variance) or inconsistently (high variance) fish turned. A lowered intra-individual variance of turning reflected repeatedly performing the same turning behavior, a stereotypy.
All data for exposure and the behavioral end points were analyzed by one-way ANOVA (factor: drug concentration) followed by a Dunnett’s multiple comparisons test for post hoc significance between drug concentration and control group. Statistically significant differences are noted as follows; *p < 0.05; **p < 0.01; ***p < 0.001.

[2] = tested on: wild-type (AB) zebrafish (Danio rerio); assay type: in vivo; settings: compound at 10 µM relative to controls; mean ± s.e.m., N = 12
[3] = tested on: wild-type (AB) zebrafish (Danio rerio); assay: Maximum tolerated concentration (MTC) determination in larval zebrafish; assay type: in vivo; settings: for MTC (maximum tolerated concentration): after 24 h exposure, 5 dpf larvae
Method: as §1
Determination of maximum tolerated concentration (adapted from Berghmans)[52] was completed by placing 5 days post fertilization (dpf) wild-type zebrafish larvae in a 24 well plate at 6 fish per well, and one compound concentration per well. […] Death was determined by the absence of heartbeat. Additional endpoints were used to assess toxicity at non-lethal concentrations such as startle capacity (poke stimulus), abnormalities in swimming behavior (loss of dorsoventral balance), and gross morphological deformities (bent body). […] The MTC determination was used to select three doses of each compound (low, medium, high dose) to be used in behavioral assays.

[4] = molecular target: T1, human M1 muscarinic receptors (Homo sapiens, UniProt P11229); assay: [3H]-arachidonic acid release in CHO cells expressing M1 receptors, with and without ACh (single modulator concentration, four-parameter curves); assay type: cell-based; parameters: expressed in transfected cells; host or cells: CHO cells stably transfected with hM1, obtained from Mark Brann's laboratory (NIH); settings: for No ACh: agonist effect of the allosteric ligand by itself, fraction of the maximal response that could be elicited by ACh / 0.1 µM ACh: response with modulator present divided by response to ACh alone / 100 µM ACh: response with modulator present divided by response to ACh alone: modulator 10 µM, CHO-hM1, mean ± s.e.m.; for No ACh: agonist effect of the allosteric ligand by itself, fraction of the maximal response that could be elicited by ACh: at least 4 determinations
T1 sequence (P11229 1-460): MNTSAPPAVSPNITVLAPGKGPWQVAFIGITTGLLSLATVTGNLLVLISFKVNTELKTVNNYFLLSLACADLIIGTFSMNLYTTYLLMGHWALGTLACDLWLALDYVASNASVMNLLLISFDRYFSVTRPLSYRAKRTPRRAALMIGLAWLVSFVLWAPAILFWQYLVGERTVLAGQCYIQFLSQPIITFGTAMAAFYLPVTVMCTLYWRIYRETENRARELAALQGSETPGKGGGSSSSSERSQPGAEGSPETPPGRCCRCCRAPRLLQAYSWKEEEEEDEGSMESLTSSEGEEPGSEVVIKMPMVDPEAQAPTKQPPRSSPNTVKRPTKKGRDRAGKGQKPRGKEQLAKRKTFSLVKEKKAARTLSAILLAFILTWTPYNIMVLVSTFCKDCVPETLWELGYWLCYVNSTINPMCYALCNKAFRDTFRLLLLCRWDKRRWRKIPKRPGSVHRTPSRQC
Method: CHO cells expressing human M1 muscarinic receptors were cultured at 37 °C in a 5% CO2 atmosphere in F12 medium supplemented with 5% fetal bovine serum, 100 units/ml penicillin, and 100 µg/ml streptomycin. These cells were obtained from Mark Brann’s laboratory when they were at NIH and have been in use by us and others for many years.
Measurement of [^3H]AA release was performed as described in Stahl and Ellis[24]. Stably transfected CHO-hM1 cells were seeded on 24-well plates (Greiner Bio-One GmbH, Frickenhausen, Germany) at a density of 5.0 × 10^4 cells/well in 0.5 ml of F-12 medium. Cells were incubated until they attached (approximately 3 h), followed by the addition of [^3H]AA to a final concentration of 0.05 μCi of [^3H]AA per well. The cells were then grown for 16 to 20 h before the assay was performed. [^3H]AA release was measured in Eagle’s basal medium with 20 mM HEPES and 2 mg/ml fatty acid-free bovine serum albumin (EM-BSA). Cells were rinsed twice with EM-BSA, followed by the addition of EM-BSA media containing experimental agents and incubated for 1 h at 37 °C. The assay was terminated by aspiration of the media, and the amount of [^3H]AA released was determined by liquid scintillation counting (Beckman-Coulter LS6500).
Where indicated (Fig. 2), cells were pretreated with POB to reduce the number of available receptors per cell. Stock POB was made up at 10 mM in ethanol and stored at −20C. Each well was pretreated with 0.5 ml of the appropriate concentration in PBS with 1 mM CaCl2 and 1 mM MgCl2 (PBS+ +) for 30 min at 37 °C, followed by 5 washes with PBS+ + . After pretreatment, the normal protocol follows as above.
Tabulated [^3H]AA release data are represented as a fraction of maximal release elicited by ACh or as the fraction of release elicited by the relevant concentration of ACh alone, as indicated. Dose-response curves were normalized to the maximal response of ACh without allosteric ligand. Where indicated, response curves were analyzed using the empirical four-parameter equation: Y=Top+Bottom-Top/1+X/C50^n where X is the concentration of the ligand used, Y is the amount of response, C50 is the concentration of the ligand that produces 50% of the maximal effect, Top and Bottom are the top and bottom plateaus of the curve, and n is related to the Hill slope for the curve. Where indicated, families of response curves were analyzed according to an allosteric operational model[50],[51]: Y=EM[τAA(KB+αβB)+τBBKA]/[τAA(KB+αβB)+τBBKA+AKB+KAKB+KAB+αAB] where EM is the maximal response; A is the concentration of ACh; B is the concentration of the allosteric ligand; τA and τB represent the operational efficacies of A and B, respectively; KA and KB are the equilibrium dissociation constants of A and B; and α and β represent the cooperativities between A and B in terms of binding and activation, respectively. Curve-fitting was carried out with GraphPad Prism, version 5.0 or 6.0 (San Diego CA).

[5] = compound at 10 µM relative to controls, mean ± s.e.m., N = 12
[6] = modulators at 10 µM (amiodarone 30 µM)

| Compound | Variance turn angle [1, 5] | MEC [1] | MTC (maximum tolerated concentration) [3] | No ACh: agonist effect of the allosteric ligand by itself, fraction of the maximal response that could be elicited by ACh [4] | 0.1 µM ACh: response with modulator present divided by response to ACh alone [4] | 100 µM ACh: response with modulator present divided by response to ACh alone [4] | Effect on M1 receptor activity and ACh response, in words [4, 6] | also measured |
| --- | --- | --- | --- | --- | --- | --- | --- | --- |
| CCCCc1oc2ccccc2c1C(=O)c1cc(I)c(OCCN(CC)CC)c(I)c1 [Amiodarone, reference compound] | 102.2 ± 10.4% | > 10 µM | 10 µM |  |  |  |  | Distance moved [1, 5]: 85.7 ± 10.2%; Angular velocity [2]: 83.2 ± 12.0%; Concentration that produced death ([3]; 24 h exposure): 100 µM |
| COc1ccc(Cn2cc(C(=O)O)c(=O)c3ccccc32)cc1 [BQCA, reference compound] | 119.6 ± 7.0* % |  |  | 0.02 ± 0.00 |  |  |  | Effect on locomotor activity and turning behaviors, in words ([1]; 30 min spontaneous swimming period): decreased overall locomotor activity; also recorded: increased angular velocity; response vs control in vivo at 10 µM ([1]; Danio rerio, read-out: Distance moved): 72 ± 10%; MEC ([1]; abbreviation not defined in the paper): 3 µM; Angular velocity [1, 5]: 141.8 ± 14.9* %; Effect on M1 receptor activity and ACh response, in words [4]: enhanced potency without appreciable effect on maximal response |
| CCCCc1oc2ccccc2c1C(=O)c1cc(I)c(OCCNCC)c(I)c1.Cl [Compound 1, (2-butylbenzofuran-3-yl)(4-(2-(ethylamino)ethoxy)-3,5-diiodophenyl)methanone hydrochloride] |  | 3 µM | 3 µM | 0.18 ± 0.03 | 1.01 ± 0.11 | 0.83 ± 0.09 | suppressed the maximal ACh response | Therap. index [1]: 1 |
| CCCCc1oc2ccccc2c1C(=O)c1cc(I)c(OCC[N+](CC)(CC)CC)c(I)c1 [Compound 2, N-ethyl amiodarone, reference compound] |  | > 1 µM | 1 µM | 0.04 ± 0.02 | 0.13 ± 0.04 | 0.50 ± 0.03 | NAM of mAChR potency and efficacy |  |
| CCCCc1oc2ccccc2c1C(=O)c1cc(I)c(O)c(I)c1 [Compound 3, reference compound] |  | > 3 µM | 3 µM | 0.04 ± 0.01 | 0.63 ± 0.10 | 0.90 ± 0.07 | suppressed the maximal ACh response |  |
| CCCCc1oc2ccccc2c1C(=O)c1ccc(O)cc1 [Compound 4, reference compound] |  | > 0.3 µM | 0.3 µM | 0.04 ± 0.01 | 0.62 ± 0.07 | 0.81 ± 0.06 | suppressed the maximal ACh response |  |
| CCCCc1oc2ccccc2c1C(=O)c1cc(I)c(OCCN(CC)C(C)=O)c(I)c1 [Compound 5, N-(2-(4-(2-butylbenzofuran-3-carbonyl)-2,6-diiodophenoxy)ethyl)-N-ethylacetamide] | 102.5 ± 8.1% | > 10 µM | 10 µM | 0.22 ± 0.03 | 1.86 ± 0.42 | 1.47 ± 0.09 | significant intrinsic agonist activity | Distance moved [1, 5]: 108.0 ± 12.9%; Angular velocity [2]: 104.0 ± 10.7% |
| COc1cccc(CN2C(=O)C(=O)c3ccccc32)c1 [Compound 8j, 1-(3-methoxybenzyl)indoline-2,3-dione] |  |  |  | 0.02 ± 0.02 | 1.09 ± 0.31 | 0.96 ± 0.01 |  |  |
| CC(COc1ccccc1)N(CCCl)Cc1ccccc1 (stereo not drawn) [POB, phenoxybenzamine, reference compound] |  |  |  |  |  |  |  | Reduction of receptor number ([4]; pretreatment of cells with 0.3 µM POB): 90% |
| O=C1C(=O)N(Cc2ccc(Br)cc2)c2ccccc21 [VU0119498, reference compound] |  |  |  | 0.06 ± 0.01 | 1.28 ± 0.12 | 1.03 ± 0.05 |  |  |
| VU0238408 [reference compound] | 146.6 ± 12.4*** % | 1 µM | 30 µM |  |  |  |  | Therap. index [1]: 30; Distance moved [1, 5]: 34.6 ± 4.0*** %; Angular velocity [2]: 180.1 ± 20.3 % |

From paper PMC11213934, “Allosteric modulators of M1 muscarinic receptors enhance acetylcholine efficacy and decrease locomotor activity and turning behaviors in zebrafish” (Scientific Reports, 2024)
